“Also recorded” adds a separate entry of the source.
How the values were obtained:
[1] = system: bri1-1 mutant seedlings; conditions: background statement; cited from earlier work
[2] = system: cpd mutant seedlings; conditions: background statement; cited from earlier work
[3] = molecular target: T1, ASKβ (Arabidopsis thaliana, UniProt O23145); conditions: prior knowledge; cited from earlier work
T1 construct: made in house; host or cells: E. coli BL21
T1 sequence (O23145 1-431): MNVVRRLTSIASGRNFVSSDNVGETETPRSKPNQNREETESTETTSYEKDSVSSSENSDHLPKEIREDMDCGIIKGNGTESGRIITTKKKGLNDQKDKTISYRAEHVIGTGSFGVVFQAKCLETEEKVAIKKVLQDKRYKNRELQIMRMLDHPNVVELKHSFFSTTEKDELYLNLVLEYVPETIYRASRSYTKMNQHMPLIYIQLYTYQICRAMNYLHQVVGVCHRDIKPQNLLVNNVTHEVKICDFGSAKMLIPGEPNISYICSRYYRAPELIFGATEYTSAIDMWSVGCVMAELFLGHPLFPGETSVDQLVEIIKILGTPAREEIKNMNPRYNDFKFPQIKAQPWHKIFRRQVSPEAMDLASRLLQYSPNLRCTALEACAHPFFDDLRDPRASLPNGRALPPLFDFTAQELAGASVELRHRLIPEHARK

[4] = molecular target: T2, ASKθ (Arabidopsis thaliana, UniProt Q96287); conditions: prior knowledge; cited from earlier work
T2 construct: made in house; host or cells: E. coli BL21
T2 sequence (Q96287 1-472): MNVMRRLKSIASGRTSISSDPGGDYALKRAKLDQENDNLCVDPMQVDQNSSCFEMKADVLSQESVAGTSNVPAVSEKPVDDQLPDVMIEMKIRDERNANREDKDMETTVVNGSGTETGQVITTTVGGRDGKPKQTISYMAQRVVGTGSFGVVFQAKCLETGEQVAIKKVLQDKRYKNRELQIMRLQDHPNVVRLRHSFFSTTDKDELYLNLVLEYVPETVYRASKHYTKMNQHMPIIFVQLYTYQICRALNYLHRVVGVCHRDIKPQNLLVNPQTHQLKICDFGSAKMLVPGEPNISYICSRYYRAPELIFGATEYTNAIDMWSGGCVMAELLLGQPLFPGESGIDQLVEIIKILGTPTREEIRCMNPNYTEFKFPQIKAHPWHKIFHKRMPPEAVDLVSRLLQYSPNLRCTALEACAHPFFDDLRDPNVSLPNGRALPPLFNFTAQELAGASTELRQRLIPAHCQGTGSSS

[5] = molecular target: T3, ASKδ (Arabidopsis thaliana, UniProt Q9FVS6); conditions: prior knowledge; listed as 4-[(5-bromo-2-pyridinyl)amino]-4-oxobutanoic acid; cited from earlier work
T3 construct: made in house; host or cells: E. coli BL21
T3 sequence (Q9FVS6 1-420): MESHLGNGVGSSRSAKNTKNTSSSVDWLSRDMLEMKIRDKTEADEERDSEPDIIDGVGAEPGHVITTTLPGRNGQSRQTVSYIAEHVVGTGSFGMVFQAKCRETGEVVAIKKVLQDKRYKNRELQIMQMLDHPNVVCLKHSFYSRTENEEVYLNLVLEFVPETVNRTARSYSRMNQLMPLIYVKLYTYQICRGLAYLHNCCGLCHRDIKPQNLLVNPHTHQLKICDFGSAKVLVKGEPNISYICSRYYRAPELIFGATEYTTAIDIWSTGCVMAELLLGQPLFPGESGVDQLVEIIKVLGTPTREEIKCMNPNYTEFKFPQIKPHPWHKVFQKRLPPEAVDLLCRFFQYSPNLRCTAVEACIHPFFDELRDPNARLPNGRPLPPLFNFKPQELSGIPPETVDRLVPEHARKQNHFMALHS

[6] = Determination of pKa values; conditions: for pKa: 50% (v/v) methanol
Method: Fifty to 100 mg compound were weighed and dissolved in 50 ml 50% (v/v) methanol. A titration curve with 50 mM NaOH as standard solution was recorded with a Greisinger electonics GPHR 1400A pH meter. The equivalence point was determined by the difference quotient method (ΔpH/ΔVNaOH) and the pKa read from the titration curve at 50% neutralisation.

[7] = system: ASKs (A. thaliana GSK-3/Shaggy-like kinases); experiment: In vitro kinase assay, GST-ASK fusion proteins with MBP and γ-[32P]-ATP; type: biochemical, Arabidopsis thaliana; conditions: compounds at 10 μM, result in words
Method: GST-ASK fusion proteins were incubated with MBP as substrate and γ-[32P]-ATP as co-substrate in the absence (−) or presence of different derivatives (the numbers correspond to Table 1). […] The compounds were used at a concentration of 10 μM. The proteins were separated by SDS-PAGE and the incorporated radioactive phosphate detected with a storage phosphor imager screen.
(§1) ASKs were expressed as GST-fusion proteins in E. coli BL21. In vitro kinase assays were performed by incubating 50 ng GST-fusion protein, 10 μg myelin basic protein (MBP; Sigma, St Louis, Mo.) as substrate and 0.15 MBq γ-[32P]-ATP as co-substrate at 25° C. for 30 min. The reaction buffer consisted of 20 mM HEPES pH7.4, 15 mM MgCl2, 5 mM EGTA and 1 mM DTT. For initial experiments cold ATP was included at concentrations up to 3 μM. The reaction products were separated by SDS-PAGE and the amount of radioactivity incorporated into MBP quantified using an Amersham storage phosphor imager screen and a Biorad Molecular Imager FX. In vivo kinase activity was detected by phosphorylation band-shift assays using BZR1-CFP as substrate.
Representatives of all groups were expressed as recombinant GST fusion proteins in E. coli.

[8] = system: group I and group II ASKs; conditions: group I: ASKα, ASKγ, ASKε; group II: BIN2, ASKζ, ASKι; prior knowledge; listed as 4-[(5-bromo-2-pyridinyl)amino]-4-oxobutanoic acid; cited from earlier work
[9] = molecular target: T4, BIN2 (Arabidopsis thaliana, UniProt Q39011); experiment: In vitro kinase assay, GST-BIN2; type: biochemical; conditions: compounds at 10 μM; result in words
T4 construct: made in house; host or cells: E. coli BL21
T4 sequence (Q39011 1-380): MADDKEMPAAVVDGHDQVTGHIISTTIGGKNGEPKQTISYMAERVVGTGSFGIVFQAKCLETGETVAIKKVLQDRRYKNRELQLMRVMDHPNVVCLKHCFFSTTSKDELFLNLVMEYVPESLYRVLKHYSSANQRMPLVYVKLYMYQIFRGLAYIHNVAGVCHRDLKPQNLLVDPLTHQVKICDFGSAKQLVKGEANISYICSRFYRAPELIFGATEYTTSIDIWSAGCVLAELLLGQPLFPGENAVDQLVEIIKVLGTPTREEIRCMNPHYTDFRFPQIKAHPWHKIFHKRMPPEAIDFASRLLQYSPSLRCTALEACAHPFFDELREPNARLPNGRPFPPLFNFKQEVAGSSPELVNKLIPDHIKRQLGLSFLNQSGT
Method: GST-BIN2 was incubated with MBP and γ-[32P]-ATP in the absence or presence of compounds 3, 14 and 15 at a concentration of 10 μM. The proteins were separated by SDS-PAGE and phosphorylation of MBP was quantified with a phospho imager screen. The residual activity is expressed in % of the control. The means and standard deviations were calculated from 4 independent assays.
as §1
The second kinase of this class, ASKβ, and the group IV kinase ASKδ are not inhibited. Representatives of all groups were expressed as recombinant GST fusion proteins in E. coli. […]

[10] = molecular target: T5, ASKζ (Arabidopsis thaliana, UniProt Q39010); experiment: In vivo kinase assay, BZR1-CFP phosphorylation band-shift in protoplasts; type: cell-based, A. thaliana; conditions: protoplasts co-transformed with BZR1-CFP and Myc-tagged ASK; increasing concentrations
T5 construct: expressed in transfected cells; host or cells: A. thaliana protoplasts
T5 sequence (Q39010 1-412): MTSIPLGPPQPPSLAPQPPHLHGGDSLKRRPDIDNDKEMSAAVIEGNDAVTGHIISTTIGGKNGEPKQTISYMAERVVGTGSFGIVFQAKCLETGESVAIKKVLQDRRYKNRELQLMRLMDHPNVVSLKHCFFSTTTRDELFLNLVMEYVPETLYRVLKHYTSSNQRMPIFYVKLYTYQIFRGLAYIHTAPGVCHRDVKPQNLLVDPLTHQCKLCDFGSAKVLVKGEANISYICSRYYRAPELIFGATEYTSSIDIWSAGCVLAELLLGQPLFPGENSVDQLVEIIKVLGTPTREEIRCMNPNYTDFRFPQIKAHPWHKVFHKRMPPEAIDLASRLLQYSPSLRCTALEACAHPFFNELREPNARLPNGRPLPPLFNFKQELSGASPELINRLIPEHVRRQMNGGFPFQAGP
Description: A. thaliana protoplasts were co-transformed with expression constructs of BZR1-CFP and Myc-tagged ASKζ and treated with increasing concentrations of compounds 10 and 15. […] and ASKζ-Myc were detected by western blot analysis using polyclonal anti-GFP and monoclonal anti-Myc antibodies, respectively. A Coomassie R250 stain is shown as a loading control. Depending on the ASKζ kinase activity BZR1-CFP can be observed in a phosphorylated or unphosphorylated form (indicated by arrows). The ratio of the two ASKζ-Myc bands, indicating posttranslational modification of this protein, were not affected by inhibitor application.
ASKs were expressed as GST-fusion proteins in E. coli BL21. […] The reaction products were separated by SDS-PAGE and the amount of radioactivity incorporated into MBP quantified using an Amersham storage phosphor imager screen and a Biorad Molecular Imager FX. In vivo kinase activity was detected by phosphorylation band-shift assays using BZR1-CFP as substrate.
Because of this unexpected result, the effect of the inhibitions on the in vivo ASK activity was analysed by a direct method. […] Transformed protoplasts were incubated with different concentrations of compounds 10 and 15 and BZR1-CFP and […] and subsequently analysed by western blotting.

For `O=C(O)CCC(=O)Nc1ccc(Br)cn1` [Compound 14, 4-[(5-bromopyrid-2-yl)amino]-4-oxobutanoic acid], the “Rescue of bri1-1 mutant” value [1] is given as “rescues both mutants”, the “Rescue of cpd mutant” value [2] is given as “rescues both mutants” and the “Inhibition of ASKβ (group III)” value [3] is given as “not inhibited”. For the same molecule, the “Inhibition of ASKθ (group III)” value [4] was “moderately inhibited”, the “Inhibition of ASKδ (group IV)” value [5] was “not inhibited; also recorded: insensitive” and the pKa [6] was 5.6. The “Inhibition of ASKs in vitro (MBP phosphorylation)” value (“Inhibition of ASKs in vitro” below) [7] was “highly active” and the “Inhibition of group I and group II ASKs” value [8] was “potent inhibitor; also recorded: most sensitive”.

In the case of `O=C(O)CCC(=O)Nc1ccc(I)cn1` [Compound 15, 4-[(5-iodopyrid-2-yl)amino]-4-oxobutanoic acid], the “Inhibition of BIN2 in vitro (residual kinase activity)” value [9] is reported as “highest potency”, the “Inhibition of in vivo ASK activity (BZR1-CFP phosphorylation shift)” value [10] is reported as “potent inhibitors in vivo; also recorded: highly active; also recorded: high inhibitory activity in vivo” and the pKa [6] is reported as 5.8. For the same molecule, the Portion undissociated ([6]; intracellular pH of 7.4) was “less than 3%”, the “Portion undissociated / lipophilic, capable of diffusion through the membrane” value ([6]; pH5.8, the pH of the medium) was 50% and the “Inhibition of ASKs in vitro” value [7] was “highest activity; also recorded: most potent compound in vitro”. The “Inhibition of ASKs in vitro” value ([7]; listed as iodo derivative) was “highly active”.

For `CC(C)[C@@H](C)[C@@H](O)[C@H](O)[C@@H](C)[C@H]1CC[C@H]2[C@@H]3COC(=O)[C@H]4C[C@H](O)[C@H](O)C[C@]4(C)[C@H]3CC[C@]12C` [epi-brassinolide], the “Rescue of bri1-1 mutant” value [1] is given as “not bril-1” and the “Rescue of cpd mutant” value [2] is given as “rescues cpd”.
